Results taken from patent US10087172B2, “Compounds and their methods of use” (AGIOS PHARMACEUTICALS, INC, priority 2012, dated 2018).

Target: T1, glutaminase (GAC) (Homo sapiens, UniProt O94925)
T1 sequence (O94925 55-598 isoform O94925-3 limits assumed): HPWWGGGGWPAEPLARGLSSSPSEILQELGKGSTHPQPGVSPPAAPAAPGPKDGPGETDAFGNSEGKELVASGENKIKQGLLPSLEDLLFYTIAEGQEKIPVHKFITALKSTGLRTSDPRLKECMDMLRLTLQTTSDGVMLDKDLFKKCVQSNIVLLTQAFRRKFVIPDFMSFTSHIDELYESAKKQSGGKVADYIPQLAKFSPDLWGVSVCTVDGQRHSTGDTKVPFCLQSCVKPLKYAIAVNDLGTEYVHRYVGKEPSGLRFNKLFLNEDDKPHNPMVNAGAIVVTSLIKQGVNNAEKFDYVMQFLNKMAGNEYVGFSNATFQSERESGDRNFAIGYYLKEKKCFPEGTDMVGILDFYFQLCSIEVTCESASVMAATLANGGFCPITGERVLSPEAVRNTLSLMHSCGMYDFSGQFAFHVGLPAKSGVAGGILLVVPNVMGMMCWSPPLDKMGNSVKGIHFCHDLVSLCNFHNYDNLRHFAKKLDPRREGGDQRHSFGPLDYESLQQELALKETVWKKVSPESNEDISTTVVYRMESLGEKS
Assay: Glutaminase (GAC) coupled endpoint enzymatic assay (glutamate dehydrogenase/diaphorase/resazurin, Ex544/Em590)
Assay type: biochemical
Conditions: inhibition of glutaminase, tested in an assay of Example A or Example B; class symbols A-E
From the text: In certain embodiments, exemplary compounds of Formula I include the compounds described in Table 1 and in the Examples. A compound described herein may be tested for its ability to inhibit glutaminase, e.g., by an assay as described in the Examples. For simplicity, the inhibition activity of these compounds is represented as an IC50 tested in an assay of Example A or Example B in Table 1. […] “N/A” refers to compounds wherein the IC50 is unavailable.
In this example, the enzymatic activity of glutaminase is measured through a coupled endpoint assay. Glutamine and phosphate are supplied to GAC at a concentration equal to Km and AC50, respectively, and GAC concentration is adjusted to give a linear reaction for 60 minutes. The glutamate produced is converted to 2-OG by a kinetic excess of glutamate dehydrogenase. This second step is configured for 2× Km for NAD, since excess NAD is inhibitory. However, a kinetic excess of the third coupling enzyme, diaphorase, recycles NAD from NADH to keep the NAD concentration constant during the timecourse of the assay. Diaphorase, also supplied in kinetic excess, oxidizes NADH produced by GDH back to NAD with the concomitant reduction of rezasurin to the highly fluorescent resorufin. Resorufin in measured after the assay is stopped with SDS by Ex544/Em590. A reduction in the signal indicates inhibition of some component of the coupled enzyme system. Prospective hits are counterscreened against GDH/diaphorase alone to remove hits to the coupling enzyme system in a second assay.
2. Buffers 2× Buffer (300 mM NaCl, 100 mM HEPES pH 8.5, 0.1% BSA, 0.5 mM EDTA, 100 mM sodium phosphate pH 8.5) 5× Substrate Mix (1× Buffer final concentration, with 13 mM glutamine, 100 μM resazurin, 50 μg/ml diaphorase) 1.2× Enzyme Mix (1× Buffer final concentration, with 0.875 μg/ml GAC, 1.56 mM NAD, 6.25 units/ml GDH) Stop Mix (6% SDS in ddH2O) Reaction Procedure 1. Add 1 μl compound in 100% DMSO 2. Add 40 μl of Enzyme Mix and incubate for 60 minute at room temperature 3. Add 10 μl of Substrate Mix to start reaction 4. Stop reaction with 25 μl of 6% SDS and read Ex544 Em 590

## CC(=O)Nc1ccccc1CC(=O)Nc1nnc([C@H]2CCC[C@H](c3nnc(NC(=O)Cc4ccccc4NC(C)=O)s3)C2)s1 [Compound 55, N,N′-(5,5′-((1S,3S)-cyclohexane-1,3-diyl)bis(1,3,4-thiadiazole-5,2-diyl))bis(2-(2-acetamidophenyl)acetamide)]
  IC50: 100 to 500 nM

## O=C(Nc1nnc([C@H]2CCC[C@H](c3nnc(NC(=O)C(CO)c4ccccc4)s3)C2)s1)C(CO)c1ccccc1 (stereo partly drawn) [Compound 380, N,N′-(5,5′-((1S,3S)-cyclohexane-1,3-diyl)bis(1,3,4-thiadiazole-5,2-diyl))bis(3-hydroxy-2-phenylpropanamide)]
  IC50: < 100 nM

## Cc1cccc(CC(=O)Nc2nnc([C@H]3CCC[C@H](c4nnc(NC(=O)Cc5cccc(C)c5)s4)C3)s2)c1 [Compound 111, N,N′-(5,5′-((1S,3S)-cyclohexane-1,3-diyl)bis(1,3,4-thiadiazole-5,2-diyl))bis(2-m-tolylacetamide)]
  IC50: 100 to 500 nM

## O=C(Cc1ccccn1)Nc1nnc([C@H]2CC[C@H](c3nnc(NC(=O)Cc4ccccn4)s3)C2)s1 [Compound 309]
  IC50: < 100 nM

## O=C(Cc1c(F)cccc1F)Nc1nnc([C@H]2CCC[C@H](c3nnc(NC(=O)Cc4c(F)cccc4F)s3)C2)s1 [Compound 89]
  IC50: 100 to 500 nM

## O=C(Nc1nnc([C@H]2CCC[C@H](c3nnc(NC(=O)c4ccccc4)s3)C2)s1)c1ccccc1 [Compound 39, N,N′-(5,5′-((1S,3S)-cyclohexane-1,3-diyl)bis(1,3,4-thiadiazole-5,2-diyl))dibenzamide]
  IC50: 1000 to 2000 nM

## CC(C)Oc1cccc(CC(=O)Nc2nnc([C@H]3CCC[C@H](c4nnc(NC(=O)Cc5cccc(OC(C)C)c5)s4)C3)s2)c1 [Compound 91, N,N′-(5,5′-((1S,3S)-cyclohexane-1,3-diyl)bis(1,3,4-thiadiazole-5,2-diyl))bis(2-(3-isopropoxyphenyl)acetamide)]
  IC50: 100 to 500 nM

## COc1cccc(CC(=O)Nc2nnc([C@H]3CCC[C@H](c4nnc(NC(=O)Cc5cccc(OC)n5)s4)C3)s2)n1 (single isomer, unassigned) [Compound 84]
  IC50: < 100 nM

## CN(C)c1cccc(CC(=O)Nc2nnc([C@H]3CCC[C@H](c4nnc(NC(=O)Cc5cccc(N(C)C)n5)s4)C3)s2)n1 (single isomer, unassigned) [Compound 105]
  IC50: < 100 nM

## COc1cccc(CC(=O)Nc2nnc([C@H]3CCC[C@H](c4nnc(NC(=O)Cc5cccc(OC)c5)s4)C3)s2)c1 (single isomer, unassigned) [Compound 71]
  IC50: < 100 nM

## N#Cc1ccc(CC(=O)Nc2nnc([C@H]3CCC[C@H](c4nnc(NC(=O)Cc5ccc(C#N)cc5)s4)C3)s2)cc1 [Compound 74, N,N′-(5,5′-((1S,3S)-cyclohexane-1,3-diyl)bis(1,3,4-thiadiazole-5,2-diyl))bis(2-(4-cyanophenyl)acetamide)]
  IC50: 100 to 500 nM

## COc1ccccc1CC(=O)Nc1nnc([C@H]2CCC[C@H](c3nnc(NC(=O)Cc4ccccc4OC)s3)C2)s1 (single isomer, unassigned) [Compound 70]
  IC50: < 100 nM

## O=C(Cc1ccccc1OC(F)(F)F)Nc1nnc([C@H]2CCC[C@H](c3nnc(NC(=O)Cc4ccccc4OC(F)(F)F)s3)C2)s1 [Compound 75, N,N′-(5,5′-((1S,3S)-cyclohexane-1,3-diyl)bis(1,3,4-thiadiazole-5,2-diyl))bis(2-(2-(trifluoromethoxy)phenyl)acetamide)]
  IC50: 100 to 500 nM

## O=C(CC1CCCO1)Nc1nnc([C@H]2CCC[C@H](c3nnc(NC(=O)CC4CCCO4)s3)C2)s1 (stereo partly drawn) [Compound 77, N,N′-(5,5′-((1S,3S)-cyclohexane-1,3-diyl)bis(1,3,4-thiadiazole-5,2-diyl))bis(2-(tetrahydrofuran-2-yl)acetamide)]
  IC50: 1000 to 2000 nM

## CS(=O)(=O)c1cccc(CC(=O)Nc2nnc([C@H]3CCC[C@H](c4nnc(NC(=O)Cc5cccc(S(C)(=O)=O)c5)s4)C3)s2)c1 [Compound 54, N,N′-(5,5′-((1S,3S)-cyclohexane-1,3-diyl)bis(1,3,4-thiadiazole-5,2-diyl))bis(2-(3-(methylsulfonyl)phenyl)acetamide)]
  IC50: < 100 nM
